Measurements taken from patent publication US20090131354A1, “miR-126 REGULATED GENES AND PATHWAYS AS TARGETS FOR THERAPEUTIC INTERVENTION” (priority 2007, published 2009).

Legend:
[1] = test system: human H460 lung cancer xenografts; assay: H460 lung cancer xenograft, cells electroporated before implantation; assay type: in vivo, NOD/SCID mice; conditions: H460, day 7
Method: The inventors assessed the growth-inhibitory activity of hsa-miR-126 in human lung cancer xenografts grown in immunodeficient mice. Hsa-miR-126 was delivered into A549 and H460 lung cancer cells via electroporation using the Gene Pulser Xcell™ (BioRad) with the following settings: 15×10^6 cells with 5 μg miRNA in 200 μl OptiMEM, square wave pulse at 150 V for 10 ms. Electroporated cells (5×10^6) were mixed with BD Matrigel™, (BD Biosciences; San Jose, Calif., USA; cat. no. 356237) in a 1:1 ratio and injected subcutaneously into the flank of NOD/SCID mice (Charles River Laboratories, Inc.; Wilmington, Mass., USA). As a negative control, A549 and H460 cells were electroporated with negative control (NC) miRNA (Pre-miR™ microRNA Precursor Molecule-Negative Control #2; Ambion cat. no. AM17111) as described above. To assess the anti-oncogenic activity of hsa-miR-126, six animals were injected with A459 cells and six animals were injected with H460 cells. NC miRNA-treated cells were injected into the opposite flank of the same animal to control for animal-to-animal variability. Once tumors reached a measurable size (A549 at 7 days post injection; H460 at 5 days post injection), the length and width of tumors were determined every day for up to 11 days. Tumor volumes were calculated using the formula, Volume=length X width X width/2, in which the length is greater than the width. […]

[2] = test system: established H460 lung tumors; assay: Established H460 lung tumors, intratumoral injections; assay type: in vivo, NOD/SCID mice; conditions: H460, 6.25 μg intratumoral with siPORT amine on days 11, 14, 17
From the text: Delivery of hsa-miR-126 into human lung cancer cells prior to implantation into the animal inhibited the formation of lung tumor xenografts. […] To explore this possibility, each 3×10^6 human H460 non-small lung cancer cells were mixed with BD Matrigel™, (BD Biosciences; San Jose, Calif., USA; cat. no. 356237) in a 1:1 ratio and subcutaneously injected into the lower back of 23 NOD/SCID mice (Charles River Laboratories, Inc.; Wilmington, Mass., USA). Once animals developed palpable tumors (day 11 post xenograft implantation), a group of six animals received intratumoral injections of each 6.25 μg hsa-miR-126 (Dharmacon, Inc., Lafayette, Colo., USA) formulated with the lipid-based siPORT™ amine delivery agent (Ambion, Austin, Tex.; cat. no. AM4502) on days 11, 14 and 17. A control group of six animals received intratumoral injections of each 6.25 μg negative control miRNA (NC; Dharmacon, Lafayette, Colo.), following the same injection schedule that was used for hsa-miR-126. Given an average mouse weight of 20 g, this dose equals 0.3125 mg/kg. […] Caliper measurements were taken every 1-2 days, and tumor volumes were calculated using the formula, Volume=length×width×width/2, in which the length is greater than the width.

[3] = test system: LNCaP prostate cancer cells; assay: Alamar Blue proliferation assay, LNCaP; assay type: cell-based, human; conditions: 30 nM, normalized to negative control miRNA (100% proliferation)
From the text: (§1) The inventors assessed the therapeutic effect of hsa-miR-126 for prostate cancer by using 4 individual human prostate cancer cell lines. To measure cellular proliferation of prostate cancer cells, the following prostate cancer cell lines were used: PPC-1, derived from a bone metastasis; Du145, derived from a brain metastasis; RWPE2, derived from prostate cells immortalized by human papillomavirus 18 and transformed by the K-RAS oncogene; and LNCaP, derived from a lymph node metastasis (Stone et al., 1978; Horoszewicz et al., 1980; Brothman et al., 1991; Pretlow et al., 1993; Bello et al., 1997). PPC-1 and Du145 cells lack expression of the prostate-specific antigen (PSA) and are independent of androgen receptor (AR) signaling. In contrast, RWPE2 and LNCaP cells test positive for PSA and AR. Cells were transfected with synthetic hsa-miR-126 (Pre-miR™-hsa-miR-126, Ambion cat. no. AM 17100) or negative control miRNA (NC; Pre-miR™ microRNA Precursor Molecule-Negative Control #2; Ambion cat. no. AM17111) in a 96-well format using a lipid-based transfection reagent. […] Proliferation was assessed 4-7 days post-transfection using Alamar Blue™ (Invitrogen) following the manufacturer's instructions. […] Fluorescent light units (FLU) were measured after 3 hours, normalized to the control, and plotted as percent change in proliferation. […]

[4] = test system: prostate cancer cells PPC-1, Du145, LNCaP and RWPE2; assay: Alamar Blue proliferation assay, all prostate cancer cell lines tested; assay type: cell-based, human
From the text: as §1

[5] = test system: MCF12A, BT549, TE353SK, 22Rv1, A549, CRL-5826, HTB-57 cells; conditions: cited from earlier work
[6] = test system: human leukemia cells (Jurkat) and normal human T cells; conditions: cited from earlier work
SCLC and NSCLC cells = conditions: various lung cancer cells; cited from earlier work

Compound: hsa-miR-126 (UCGUACCGUGAGUAAUAAUGC; synthetic pre-miR form, further chemistry not given here) [Synthetic hsa-miR-126 (Pre-miR™-hsa-miR-126, Ambion cat. no. AM17100)]
- tumor size relative to control tumors [1]: smaller in size
- growth of established tumors [2]: robustly inhibited growth of established H460 lung tumors
- % proliferation [3]: 80.59%
- average inhibition of cellular proliferation ([4]; average of PPC-1, Du145, LNCaP, RWPE2, 30 nM): 23.07%
- growth-inhibitory activity compared with siEg5 ([4]; prostate cancer cell lines, 30 nM): comparable to that of Eg5-directed siRNA
- effect on proliferation [5]: decreasing proliferation
- effect on proliferation [6]: increasing the proliferation

Compound: COc1cc([C@@H]2c3cc4c(cc3[C@@H](O[C@@H]3O[C@@H]5CO[C@@H](C)O[C@H]5[C@H](O)[C@H]3O)[C@H]3COC(=O)[C@H]23)OCO4)cc(OC)c1O [etoposide]
- IC50 (SCLC and NSCLC cells): 1 to 25 µM
